From patent publication US7906488B2, “Sphingolipids in treatment and prevention of steatosis and of steatosis or of hepatotoxicity and its sequelae” (Nederlandse Organisatie Voor …, priority 2004, dated 2011)

Tests used:
[1] = test system: APOE*3Leiden mice; test: Hepatic mRNA expression levels by RT-PCR (normalized to HPRT); assay type: in vivo; design: key to acc1 mRNA, Change / mttp mRNA, Change / dgat1 mRNA, Change / dgat2 mRNA, Change / aco mRNA, Change / ldlr mRNA, Change / apob mRNA, Change / srebp2 mRNA, Change / pparα mRNA, Change / pparγ mRNA, Change / lxrα mRNA, Change / lxrβ mRNA, Change / fxr mRNA, Change / hmgcoAred mRNA, Change / cyp7α mRNA, Change / abca1 mRNA, Change / srebp1c mRNA, Change / fas mRNA, Change: ↑, (upregulated); ↓, (downregulated); n.s., not significant
Procedure: (§1) Plasma parameters: Tail blood samples were collected in EDTA-coated cups, or in paraoxon-coated capillaries to prevent lipolysis as described in Zambon et al. 1993 (Zambon et al. 1993. J. Lipid Res. 34:1021-1028). Plasma lipid parameters were determined using commercial kits for total cholesterol (C) Chol R1 from Roche Diagnostics, Mannheim, Germany), non-esterified free fatty acids (FFA) (NEFA-C; Wako chemicals, Neuss, Germany), Total triglycerides (TG) (Triglyceride GPO-Trinder; Sigma, St. Louis, Mo.), β-hydroxybutyrate (β-HB; Sigma) and ALAT (Reflotron GPT; Roche). Serum amyloid A (SAA) was measured by ELISA (Biosource, Nivelles, Belgium) and fibrinogen by sandwich ELISA, as described in Koopman et al., 2005 (Koopman et al. 2005. Fibrinol Proteol 11:19). For lipoproteins fractionation, groupwise-pooled plasma was size-fractionated by fast protein liquid chromatography (FPLC) on a Superose 6 column (Äkta; Amersham Pharmacia Biotech, Uppsala, Sweden). Fractions were assayed for total C and TG as described. Hepatic VLDL-TG production: The rate of hepatic VLDL-TG production, de novo apoB secretion, and VLDL composition were determined in overnight-fasted mice. Mice were anaesthetized with vetranquil/fentanyl/midazolam i.p., and injected i.v. with 0.1 ml PBS containing 100 μCi Tran^35S-label™ (ICN Biomedicals, Irvine, Calif.) to measure the de novo apoB synthesis. After 30 min, the animals received a Triton WR1339 injection (Tyloxapol, Sigma; 500 mg/kg body weight in 100 μl saline) to prevent systemic lipolysis of newly-secreted hepatic VLDL-TG (Aalto-Setala et al. 1992. J. Clin. Invest 90:1889-1900.27) Blood samples were drawn at 0, 15, 30, 60, and 90 min after Triton WR1339 injection and plasma TG concentrations were determined. After 90 min, the animals were sacrificed and blood was collected by retro-orbital bleeding for isolation of VLDL. VLDL composition: VLDL particles (d<1.019) were separated from other lipoproteins in plasma by density gradient ultra-centrifugation, as described in Jong et al., 1996 (Jong et al. 1996. Arterioscler. Thromb. Vasc. Biol. 16:934-940). Protein content of the VLDL fraction was determined by Lowry's assay (Lowry et al., 1951. J. Biol. Chem. 193:265-275), and TG and total C were determined as described above. Phospholipids and free cholesterol were determined using standard commercial kits (Wako Chemicals, Neuss, Germany). The ^35S-apoB content of VLDL was measured after selective precipitation of apoB with isopropanol as described elsewhere (Li et al. 1996 J. Lipid Res. 37:210-220; Pietzsch et al. 1995. Biochim. Biophys. Acta 1254:77-88). In vivo clearance of VLDL-like TG-rich particles: To determine whether 1% PS accelerates the clearance of TG-rich lipoproteins from plasma, we used radiolabeled emulsion particles as a tool. VLDL-like emulsion particles containing 200 μCi of [^3H]triolein and 20 μCi of [^14C]cholesteryl oleate were prepared and characterized as described in Rensen et al. 1997 (Rensen et al., 1997. J. Lipid Res. 38:1070-1084). Fed mice were anaesthetized as described above and laparotomy was performed. […] After taking the last liver and blood sample, the remainder of the liver, heart, spleen, hind limb muscle, and gonadal, perirenal and intestinal white adipose tissues were harvested. Lipids were extracted overnight at 60° C. in 500 μL of Solvable™, and radioactivity was counted as described in Rensen et al., 1997 (supra). RNA isolation and RT-PCR: Livers from 4 h-fasted mice fed 1% PS-containing diet or control Western-type diet for 5 weeks were removed immediately after sacrifice, flushed with cold 0.9% NaCl and snap frozen in liquid nitrogen. Total RNA was isolated as described by Chomczynski and Sacchi (Chomczynski, P. and Sacchi, N. 1987. Anal. Biochem. 162:156-159) by use of RNA-Bee™ (Campro Scientific, Berlin, Germany). cDNA synthesis was performed according to Bloks et al (Bloks et al., 2001. J. Lipid Res. 42:41-50). […]

[2] = test system: APOE*3Leiden mice; test: Hepatic VLDL-TG production, apoB production and VLDL composition (Triton WR1339 method); assay type: in vivo; conditions: 1% PS diet
Procedure: as §1

[3] = 1% PS diet, 5 weeks, control = 100%

CCCCCCCCCCCCCC[C@@H](O)[C@@H](O)[C@@H](N)CO [PS, phytosphingosine]
abca1 mRNA, Change ([1]; 1% PS diet vs control): n.s.
acc1 mRNA, Change ([1]; 1% PS diet vs control): n.s.
aco mRNA, Change ([1]; 1% PS diet vs control): n.s.
apob mRNA, Change ([1]; 1% PS diet vs control): n.s.
cyp7α mRNA, Change ([1]; 1% PS diet vs control): ↓
dgat1 mRNA, Change ([1]; 1% PS diet vs control): n.s.
dgat2 mRNA, Change ([1]; 1% PS diet vs control): ↑
fas mRNA, Change ([1]; 1% PS diet vs control): ↑
fxr mRNA, Change ([1]; 1% PS diet vs control): ↑
hmgcoAred mRNA, Change ([1]; 1% PS diet vs control): ↑
ldlr mRNA, Change ([1]; 1% PS diet vs control): ↑
lxrα mRNA, Change ([1]; 1% PS diet vs control): ↑
lxrβ mRNA, Change ([1]; 1% PS diet vs control): ↓
mttp mRNA, Change ([1]; 1% PS diet vs control): ↑
pparα mRNA, Change ([1]; 1% PS diet vs control): n.s.
pparγ mRNA, Change ([1]; 1% PS diet vs control): n.s.
srebp1c mRNA, Change ([1]; 1% PS diet vs control): ↑
srebp2 mRNA, Change ([1]; 1% PS diet vs control): ↑
abca1 hepatic mRNA level [1, 3]: 79 ± 6%
acc1 hepatic mRNA level [1, 3]: 138 ± 29%
aco hepatic mRNA level [1, 3]: 56 ± 9%
apob hepatic mRNA level [1, 3]: 105 ± 25%
cyp7α hepatic mRNA level [1, 3]: 7 ± 2%
dgat1 hepatic mRNA level [1, 3]: 112 ± 27%
dgat2 hepatic mRNA level [1, 3]: 185 ± 23%
fas hepatic mRNA level [1, 3]: 237 ± 33%
fxr hepatic mRNA level [1, 3]: 164 ± 58%
hmgcoAred hepatic mRNA level [1, 3]: 444 ± 71%
ldlr hepatic mRNA level [1, 3]: 209 ± 14%
lxrα hepatic mRNA level [1, 3]: 162 ± 13%
lxrβ hepatic mRNA level [1, 3]: 16 ± 8%
mttp hepatic mRNA level [1, 3]: 167 ± 5%
pparα hepatic mRNA level [1, 3]: 125 ± 10%
pparγ hepatic mRNA level [1, 3]: 119 ± 10%
srebp1c hepatic mRNA level [1, 3]: 194 ± 3%
srebp2 hepatic mRNA level [1, 3]: 317 ± 33%
VLDL particle composition: phospholipid ([2]; 5 weeks): 7.57 ± 1.13 μmol/mg VLDL protein
VLDL particle composition: total cholesterol ([2]; 5 weeks): 11.94 ± 2.16 μmol/mg VLDL protein
VLDL particle composition: triglycerides ([2]; 5 weeks): 36.93 ± 7.17 μmol/mg VLDL protein
VLDL total cholesterol, % Δ vs control ([2]; 5 weeks): −51%
apoB production rate, % Δ vs control ([2]; 5 weeks): did not differ and n.s.
VLDL-TG production rate ([2]; 5 weeks, overnight-fasted): 3.63 ± 0.52 μmol TG/h
apoB production rate ([2]; 5 weeks, overnight-fasted): 13.47 ± 2.45 ×10^4 dpm/ml/h
Decrease of total C in VLDL particles vs control ([2]; p<0.05): 51%
